# Assay results published in patent publication US20230346827A1 (priority 2020, published 2023).
# Tests used:
# [1] = tested on: SARS-CoV-2; details: incubation of SARS-CoV-2 with exogenous LMW-DS; cited from earlier work
# [2] = tested on: human PBMC; experiment: Stimulated cytokine release from human PBMC (5-plex Luminex: IFNγ, IL-8, TNFα, IL-1β, IL-10); type: cell-based
# Method: Example 9 investigated the ability of LMW-DS to modify the secretion of IL-6 from human PBMC arising from the use of various stimuli. The present study performed a broader analysis of the cell culture supernatants arising from Example 9. Thus, peripheral blood mononuclear cells (PBMC) were isolated from healthy donors through Ficoll-Paque PLUS density centrifugation. The PBMC were cultured at 2×10^5 cells/well in the absence (unstimulated PBS vehicle controls) or presence of stimulation (LPS, peptidoglycan, pokeweed mitogen, PHA-L, CpG + IL-15, or Cytostim) in the absence (vehicle) or presence of LMW-DS (Tikomed AB, Viken, Sweden, WO 2016/076780; three concentrations; top concentration 600 µg/ml, 200 µg/ml and 60 µg/ml) for 24 hours at 37° C., 5% CO2.
# Accordingly, the treatments were as follows for each PBMC donor: • i. Vehicle • ii. Simulation • iii. Stimulation + LMW-DS (60 µg/ml) • iv. Stimulation + LMW-DS (200 µg/ml) • v. Stimulation + LMW-DS (600 µg/ml) with each assessed in triplicate such that the total numbers of samples were: • 1. LPS; 165 samples (from 11 donors) • 2. Peptidoglycan from B. subtilis; 90 samples (from 6 donors) • 3. PHA-L; 90 samples (from 6 donors) • 4. 0.2 µM CpG + IL-15; 90 samples (from 6 donors) • 5. 1.0 µM CpG + IL-15; 90 samples (from 6 donors) • 6. Pokeweed mitogen; 90 samples (from 6 donors) • 7. 10 µl/ml Cytostim; 90 samples (from 6 donors) • 8. 30 µl/ml Cytostim; 90 samples (from 6 donors)
# Following treatment, cell culture supernatants were removed, centrifuged and stored at -20° C. before thawing for multiplex analysis of various cytokines using the 5-plex human magnetic Luminex assay from R&D systems (Cat. No. LXSAHM-05). Luminex analysis was carried out exactly following manufacturer’s protocols.
# [3] = tested on: PBMC and HUVEC + LPS (TLR4 ligand); experiment: BioMAP LPS system; type: cell-based, human; details: annotated relative to vehicle controls
# From the text: Cell types and stimuli used in each system are as follows: 3C system [HUVEC + (IL-1β, TNFα and IFNy)], 4H system [HUVEC + (IL-4 and histamine)], LPS system [PBMC and HUVEC + LPS (TLR4 ligand)], SAg system [PBMC and HUVEC + TCR ligands], BT system [CD19+ B cells and PBMC + (α-IgM and TCR ligands)], BF4T system [bronchial epithelial cells and HDFn + (TNFα and IL-4)], BE3C system [bronchial epithelial cells + (IL-1β, TNFα and IFNy)], CASM3C system [coronary artery smooth muscle cells + (IL-1 β, TNFα and IFNy)], HDF3CGF system [HDFn + (IL-1β, TNFα, IFNy, EGF, bFGF and PDGF-BB)], KF3CT system [keratinocytes and HDFn + (IL-1β, TNFα, IFNy and TGFβ)], MyoF system [differentiated lung myofibroblasts + (TNFα and TGFβ)] and Mphg system [HUVEC and M1 macrophages + Zymosan (TLR2 ligand)].
# Systems are derived from either single cell types or co-culture systems. Adherent cell types are cultured in 96 or 384-well plates until confluence, followed by the addition of PBMC (SAg and LPS systems). […] Soluble factors from supernatants are quantified using either HTRF® detection, bead-based multiplex immunoassay or capture ELISA. Overt adverse effects of test agents on cell proliferation and viability (cytotoxicity) are detected by sulforhodamine B (SRB) staining, for adherent cells, and alamarBlue® reduction for cells in suspension. […]
# [4] = LPS, highest concentration of LMW-DS
substance,measurement,setting,value
sodium salt of dextran sulfate [LMW-DS],viral replication within ex vivo human lung tissue explants,[1],reduced viral replication
same,IL-8 secretion response,[2]; CpG + IL-15,little impact
same,IL-10 secretion,[2]; Cytostim,concentration dependent large reduction
same,"secretion of IFNγ, IL-1β, IL-8, TNFα",[2]; Cytostim,small reductions
same,IFNγ secretion,"[2]; LPS, LMW-DS 60-600 µg/ml",concentration dependent but small reduction
same,IL-10 secretion,"[2]; LPS, LMW-DS 60-600 µg/ml",concentration dependent but small reduction
same,IL-1β secretion,[2]; [4],modest reduction
same,IL-8 secretion,[2]; [4],modest reduction
same,TNFα secretion,[2]; [4],modest reduction
same,IFNγ release,[2]; PHA-L,small decreases
same,IL-8 release,[2]; PHA-L,small decreases
same,IL-10 secretion,[2]; PHA-L,"large, concentration dependent decrease"
same,TNFα release,[2]; PHA-L,small decreases
same,IL-1β secretion,[2]; peptidoglycan,increases
same,TNFα secretion,[2]; peptidoglycan,increases
same,general reduction in cytokine release,"[2]; peptidoglycan, LMW-DS up to 600 µg/ml",little evidence
same,IL-10 secretion,[2]; pokeweed mitogen,concentration-dependent decrease
same,"secretion of IFNγ, IL-1β, IL-8, TNFα",[2]; pokeweed mitogen,not impacted generally
same,Decreased biomarker activity,[3],sTNFα
same,Increased biomarker activity,[3],IL-8
